In PubChem BioAssay AID671 (University of Pittsburgh Molecular Library Screening Center, 2007) one finds inhibition and IC50 data, which are given here for 27 compounds.

For the test, the target named is M-phase inducer phosphatase 2 (Homo sapiens) (UniProt P30305). Nature of the test: Cdc25B catalytic domain phosphatase inhibitors, dose response, biochemical, with glutathione, probe assessment (AID 671). To be noted: recombinant Cdc25B catalytic domain, phosphatase activity; for inhibition: measured here: inhibition at top dose 50 uM, at 50 µM, stronger effect = higher value.

The structures appear in SMILES notation.

Sequence of M-phase inducer phosphatase 2 (Homo sapiens) (P30305 whole entry, looked up, the tested form may be a part): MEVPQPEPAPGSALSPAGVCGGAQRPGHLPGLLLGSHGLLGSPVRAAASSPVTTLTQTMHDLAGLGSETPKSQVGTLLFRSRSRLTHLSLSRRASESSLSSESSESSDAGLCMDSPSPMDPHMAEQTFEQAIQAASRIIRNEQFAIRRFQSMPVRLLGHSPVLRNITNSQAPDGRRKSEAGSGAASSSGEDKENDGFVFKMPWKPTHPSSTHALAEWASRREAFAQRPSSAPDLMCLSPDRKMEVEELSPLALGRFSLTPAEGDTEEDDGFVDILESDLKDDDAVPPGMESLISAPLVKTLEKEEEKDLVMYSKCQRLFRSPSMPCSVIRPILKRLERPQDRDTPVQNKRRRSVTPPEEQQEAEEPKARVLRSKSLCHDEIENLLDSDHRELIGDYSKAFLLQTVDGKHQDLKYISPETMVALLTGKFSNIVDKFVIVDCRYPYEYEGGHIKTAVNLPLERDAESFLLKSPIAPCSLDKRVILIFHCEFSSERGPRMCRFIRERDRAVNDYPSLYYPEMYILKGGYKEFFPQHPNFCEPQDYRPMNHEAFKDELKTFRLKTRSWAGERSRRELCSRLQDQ

For `CCOc1ccc2noc3c2c1C(=O)c1ccccc1-3`, the inhibition (usually the relative decrease from the control value, in per cent) was 30.7%.

As to `COc1ccc(Br)cc1/C=c1\sc2nc(-c3ccco3)nn2c1=O`, the inhibition worked out at 91.7%.

Take `c1ccc(CSc2nnc(-c3ccco3)c(-c3ccco3)n2)cc1`: the inhibition came to 84.7%.

For the compound `Cc1ccc2c(c1C)NC(C(=O)O)C1CC=CC21` (stereo not drawn), the inhibition was determined as 89.9%.

In the case of `Cn1ncnc2c(=O)n(C)c(=O)nc1-2`, the inhibition worked out at 63%.

In the case of `N#Cc1c(N)sc(=S)c2c1CCN(Cc1ccccc1)C2`, the inhibition came to 51%.

On to `O=c1[nH]c(Nc2ccccc2)cc2ccccc12`, for which the inhibition was 48.6%.

On to `O=C(OC1CCCCC1)c1ccc2c(c1)C1C=CCC1C(C(=O)O)N2` (stereo not drawn), for which the inhibition was 90.2%.

As to `CCn1nc(-c2ccccc2)nc2c(=O)n(C)c(=O)nc1-2`, the inhibition was determined as 34.5%.

Consider `COc1cccc2c1NC(C(=O)O)C1CC=CC21` (stereo not drawn), for which the inhibition is 85%.

On to `COc1cccc2c(C)c(C(=O)O)[nH]c12`, for which the inhibition was found to be 85.7%.

Take `[O-]/[N+](=C\c1ccncc1)c1ccccc1`: the inhibition worked out at 4.4%.

With `CC(=O)Nc1cc(OC(C)=O)c2nonc2c1OC(C)=O`, the inhibition was 28.7%.

Turning to `O=C1Cc2ccccc2C(=O)N1CCc1ccccc1`, the inhibition came to 7.6%.

`O=C(O)C1Nc2c(O)cccc2C2C=CCC12` (stereo not drawn): the inhibition came to 94.8%.

Consider `Cc1c(N=c2c(=O)c3ccccc3c2=O)c(=O)n(-c2ccccc2)n1C`, for which the inhibition was found to be 30.4%.

Turning to `[O-]/[N+](=C\c1ccc(OC(F)F)cc1)c1ccccc1`, the inhibition stood at 8.3%.

In the case of `COc1ccc2noc3c2c1C(=O)c1ccccc1-3`, the inhibition is 16.7%.

Consider `CCOC(=O)C(C(=O)OCC)c1cc(Br)c2noc3c2c1C(=O)c1ccccc1-3`, for which the inhibition is 36.5%.

As for `O=C1C=Cc2ccccc2C1=O`, the inhibition is 78.6%.

For the compound `N#Cc1c(N2CCCC2)nc(N)c2c(N)nc(N3CCCC3)cc12`, the inhibition was -13.3%.

`Cc1ccccc1Nc1cc2ccccc2c(=O)[nH]1`: the inhibition amounted to 40.3%.

Regarding `CCn1nc(-c2cccs2)nc2c(=O)n(C)c(=O)nc1-2`, the inhibition was 41.5%.

Consider `O=C(NC1(O)C(=O)c2ccccc2C1=O)c1ccccc1`, for which the inhibition was found to be 36%.

`O=C(Nc1ccc2nc(-c3ccco3)c(-c3ccco3)nc2c1)N1CCCCCC1`: the inhibition amounted to 85.5%.

As for `Nc1cccc2cnccc12`, the inhibition was -3.3%.

On to `Cc1ccc2c(c1)C1C=CCC1C(C(=O)O)N2` (stereo not drawn), for which the IC50 – broadly, the concentration needed to halve the response being measured – was 5.89 µM and the inhibition was 88.9%.
